In US11040028B2, “Penicinotam derivative, preparation method and use thereof” (OCEAN UNIVERSITY OF CHINA, priority 2017, dated 2021) one finds IC50 and phototoxic reactions data, which are given here for 3 molecules.

The subject of data set [1] is cardiac fibroblast RAT-iCell-C002. Kind of data set: Anti-fibrosis activity test: inhibition of proliferation of cardiac fibroblast RAT-iCell-C002 (CCK-8). Type of data set: cell-based. Conditions: Cardiac fibroblast, 48 h. In short, it runs like this:
(§1)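 48 h compound treatment of fibroblast-type cells seeded at 2×10^4 cells/mL, 37° C, 5% CO2; viability by CCK-8 (2 h, A450). Inhibition rate calculated against blank control, IC50 by curve fitting; pirfenidone served as reference.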

The subject of data set [2] is human hepatic stellate cells LX-2. Kind of data set: Anti-fibrosis activity test: inhibition of proliferation of human hepatic stellate cells LX-2 (CCK-8). It is filed as cell-based. Conditions: Homo sapiens, 48 h. The method in brief:
as §1

The subject of data set [3] is human embryonic lung fibroblast IMR-90. Briefly: Anti-fibrosis activity test: inhibition of proliferation of human embryonic lung fibroblast IMR-90 (CCK-8). Type of data set: cell-based. The method in brief: as §1
The test system of data set [4] is human fibrosarcoma cells HT-1080. Kind of data set: Anti-fibrosis activity test: inhibition of proliferation of human fibrosarcoma cells HT-1080 (CCK-8). It is filed as cell-based. Conditions: Homo sapiens, HT-1080, 48 h. The method in brief:
as §1

A further data set has as its system BHK-21 cells. Kind of data set: Anti-fibrosis activity test: inhibition of BHK-21 cell proliferation (CCK-8). Conditions: Mesocricetus auratus, BHK-21, 48 h. It is filed as cell-based. In short, it runs like this: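 Proliferation of BHK-21 cells is measured by CCK-8 at 450 nm following 48 h compound exposure at several concentrations. Inhibition is expressed relative to blank control and IC50 is computed from it.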

The test system of a further data set is NF-κB. Briefly: Immunological activity test: inhibition of NF-κB activity. Conditions: initial concentration of 30 μM; a/b isomers given as first/second symbol; read-out: IC50 (μM), inhibitory activity against NF-κB. Type of data set: cell-based. The method in brief: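 Compounds were first screened for inhibition of NF-κB activity at 30 μM, with parthenolide as the positive control. IC50 values were then determined for the compounds by further analysis of the assay data.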

Data set [5] concerns human dermal fibroblasts CCC-ESF-1. Kind of data set: Anti-fibrosis activity test: inhibition of proliferation of human dermal fibroblasts CCC-ESF-1 (CCK-8). It is filed as cell-based. The conditions noted are these: Fibroblast. In short, it runs like this: as §1
For data set [6], the system named is human lung fibroblasts HFL1. Kind of data set: Anti-fibrosis activity test: inhibition of proliferation of human lung fibroblasts HFL1 (CCK-8). It is filed as cell-based. Conditions: Homo sapiens, HFL1, 48 h. The method in brief:
as §1

The subject of data set [7] is mouse macrophages (RAW264.7). Kind of data set: Lipopolysaccharide-induced NO secretion in macrophages (Griess). Conditions: Mus musculus, RAW264.7, 24 h, RAW264.7, LPS 1 μg/ml, a/b isomers given as first/second symbol, read-out: IC50 (μM), inhibition of lipopolysaccharide-induced NO secretion in macrophages. It is filed as cell-based. The method in brief: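 RAW264.7 macrophages in DMEM with 10% FBS received test samples at several concentrations and were stimulated with 1 μg/ml LPS for 24 h. NO in the supernatant was measured with the Griess reagent at 548 nm, […].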

For data set [8] the following is noted: pirfenidone, stated as known property; cited from earlier work.
Where [9] appears, read: Homo sapiens, IMR-90 cells, 48 h, CCK-8.
The mark [10] stands for this setting: Homo sapiens, CCC-ESF-1 cells, 48 h, CCK-8.

On to `Cc1ccc2n1C(=O)c1[nH]c3ccccc3c(=O)c1-2` [Compound 799a, 3-Methyl-5H-pyrrolizino[2,1-b]quinoline-5,11(6H)-dione], for which the IC50 in data set [1] (RAT-iCell-C002 cells, CCK-8) is 0.05 to 5 mM; in data set [2] (LX-2, 48 h, LX-2 cells, CCK-8), 0.05 to 5 mM; in [3] (setting [9]), 0.05 to 5 mM; in data set [4] (HT-1080 cells, 48 h, CCK-8), less than 0.05 mM; with BHK-21 cells (48 h, CCK-8) it was 0.05 to 5 mM; with NF-κB, 1 to 10 µM. Further, the half-maximal inhibitory concentration (IC50) in data set [5] (setting [10]) fell in the range of 0.05 to 5 mM; in data set [6] (HFL1 cells, 48 h, CCK-8) it was 0.05 to 5 mM; in data set [7], 1 to 10 µM.

Regarding `Cc1ccc2n1C(=O)c1nc3ccccc3c(O)c1-2` [Compound 799b, 11-hydroxy-3-methyl-5H-pyrrolizino[2,1-b]quinolin-5-one], the IC50 in [1] (RAT-iCell-C002 cells, CCK-8) was 0.05 to 5 mM; in data set [2] (LX-2, 48 h, LX-2 cells, CCK-8) it was 0.05 to 5 mM; in data set [3] (setting [9]), 0.05 to 5 mM; in data set [4] (HT-1080 cells, 48 h, CCK-8), 0.05 to 5 mM; in the data set with BHK-21 cells (48 h, CCK-8), 0.05 to 5 mM; in the data set on NF-κB it was 1 to 10 µM. In addition, the concentration for half-maximal inhibition (IC50) in [5] (setting [10]) fell in the range of 0.05 to 5 mM; in data set [6] (HFL1 cells, 48 h, CCK-8) it was 0.05 to 5 mM; in data set [7] it was 1 to 10 µM.

As to `Cc1ccc(=O)n(-c2ccccc2)c1` [pirfenidone, reference compound], the half-maximal inhibitory concentration (IC50) in data set [1] (cardiac fibroblast RAT-iCell-C002, CCK-8, 48 hours) is 20 to 100 mM; in [2] (human hepatic stellate cells LX-2, CCK-8, 48 hours), 20 to 100 mM; in [3] (human embryonic lung fibroblast IMR-90, CCK-8, 48 hours), 20 to 100 mM; in [4] (human fibrosarcoma cells HT-1080, CCK-8, 48 hours) it was 20 to 100 mM; in the data set with BHK-21 cells (CCK-8, 48 hours after administration), 20 to 100 mM; in data set [5] (human dermal fibroblasts CCC-ESF-1, CCK-8, 48 hours) it was 20 to 100 mM. In [6] (human lung fibroblasts HFL1, CCK-8, 48 hours), this molecule showed an IC50 of 5 to 20 mM. In data set [8], the phototoxic reactions result was “phototxic reactions, which are produced by pirfenidone”.
